Experimental data reported in patent US20160024052A1, “BENZIMIDAZOLE RETINOIC ACID RECEPTOR-RELATED ORPHAN RECEPTOR MODULATORS AND USES THEREOF” (INNOV17 LLC, priority 2014, published 2016).

Experiments:
Format in all cases: cell-based
Conditions in all cases: 72 h; human CD4+ T cells under TH17-polarizing conditions, 3 days, supernatant ELISA, 0.1% DMSO
IL-21 = assay: Human TH17 cytokine inhibition measured by ELISA: IL-21
Description: (§1) Human TH17 Cytokine Inhibition as Measured by ELISA
(§2) Peripheral blood mononuclear cells (PBMCs) were sourced from freshly prepared leukocyte enriched plasma (buffy coat) from healthy donors (New York Blood Center). PBMCs were isolated by density gradient centrifugation using Ficoll-Paque™ PLUS (GE Healthcare). Human CD4+ T cells were seeded into 96-well plates (5×10^4 cells/well) and activated with plate-bound anti-human (h)-CD3 antibody and soluble h-aCD28 (both at lug/ml; eBioscience) and differentiated into TH17 cells with 20 ng/mL h-IL-6, 5 ng/mL h-TGF-β1, 10 ng/mL h-IL-23 (eBioscience) and 10 ng/mL IL-1β (Miltenyi Biotec) in serum-free TexMACS Medium (Miltenyi Biotec) supplemented with 1% Penicillin/Streptomycin (Lonza) for 3 days. CD4+ T cells propagated under TH17-polarizing conditions were cultured in the presence or absence of various concentrations of compounds with a final concentration of 0.1% DMSO. Supernatants were collected and stored at −20° C. until assayed for IL-17A, IL-17F and IL-21 levels by “Ready-Set-Go” ELISA kits (eBioscience) as per manufacturer's instructions. Endpoint absorbance was read at 450 nm using a microplate reader (Perkin Elmer).

IL-17A = assay: Human TH17 cytokine inhibition measured by ELISA: IL-17A
Description: as §1, §2

IL-22 = assay: Human TH17 cytokine inhibition measured by ELISA: IL-22
IL-17F = assay: Human TH17 cytokine inhibition measured by ELISA: IL-17F
Description: as §1, §2

IC50 (IL-21) [µM]	IC50 (IL-17A) [µM]	IC50 (IL-22) [µM]	IC50 (IL-17F) [µM]	Compound
< 10	< 10	< 10	< 10	O=C(CC1CCCCC1)N1CCC(Cn2cnc3cc(-c4cn[nH]c4)ccc32)CC1 [Example 10]
< 10	< 10	< 10	< 10	O=S(=O)(c1ccccc1)N1CCC(Cn2cnc3cc(-c4cn[nH]c4)ccc32)CC1 [Example 11, 1-((1-(phenylsulfonyl)piperidin-4-yl)methyl)-5-(1H-pyrazol-4-yl)-1H-benzo[d]imidazole]
> 10	< 10	< 10	< 10	O=S(=O)(Cc1ccccc1)N1CCC(Cn2cnc3cc(-c4cn[nH]c4)ccc32)CC1 [Example 12, 1-((1-(benzylsulfonyl)piperidin-4-yl)methyl)-5-(1H-pyrazol-4-yl)-1H-benzo[d]imidazole]

The remaining lines, values behind:

Compound	IC50 (IL-21) [µM]	IC50 (IL-17A) [µM]	IC50 (IL-22) [µM]	IC50 (IL-17F) [µM]
O=C(c1ccccc1)N1CCC(Cn2cnc3cc(-c4cn[nH]c4)ccc32)CC1 [Example 7, (4-((5-(1H-pyrazol-4-yl)-1H-benzo[d]imidazol-1-yl)methyl)piperidin-1-yl)(phenyl)methanone]	< 10	> 10	< 10	< 10
O=C(Cc1ccccc1)N1CCC(Cn2cnc3cc(-c4cn[nH]c4)ccc32)CC1 [Example 8]	< 10	> 10	< 10	< 10
O=C(CCc1ccccc1)N1CCC(Cn2cnc3cc(-c4cn[nH]c4)ccc32)CC1 [Example 9, 1-(4-((5-(1H-pyrazol-4-yl)-1H-benzo[d]imidazol-1-yl)methyl)piperidin-1-yl)-3-phenylpropan-1-one]	< 10	< 10	< 10	< 10
